Laboratory results as given in patent publication US11596639B2, “Substituted indole Mcl-1 inhibitors” (Vanderbilt University, priority 2016, dated 2023).

System: H929 human cancer cell lines
Experiment: Cellular viability / proliferation (Cell TiterGlo, 72 h)
Format: cell-based
Conditions: Homo sapiens, NCI-H929, 72 h, read-out: GI50 on cellular proliferation of H929 human cancer cell lines, H929 cells, 72 h, Cell TiterGlo, 10% FBS
Procedure: Cellular Viability of Human Tumor Cell Lines
To evaluate compound effect on cellular proliferation, cells were plated at 1,000 cells/well in 96-well tissue culture plates in a total volume of 90 μL medium supplemented with 10% FBS (Sigma, Saint Louis, Mo.). 24 hours later, 10 μL of compound (in a 2-fold serial dilution) is added to the cells for a top concentration of 50 μM and a final DMSO concentration <1%. After 72 hours, 50 μL of Cell TiterGlo (Promega, Madison, Wis., USA) reagent is added to each well and plates are incubated at room temperature, in the dark, for 30 minutes. Luminescence is measured on a BioTek Cytation 3. Luminescence values are imported into a template in XLFit (Guildford, Surrey, UK) that uses a four-parameter fit to generate an IC50 value for each compound dilution series on the plate.

Row | Structure (SMILES) | GI50
1 | Cc1cc(OCCCc2c3n(c4c(-c5c(C)nn(C)c5C)c(Cl)ccc24)CCCN(c2ccc(C(=O)O)c4ccn(C)c24)C3=O)cc(C)c1Cl [Example 55, 7-(8-Chloro-11-(3-(4-chloro-3,5-dimethylphenoxy)propyl)-1-oxo-7-(1,3,5-trimethyl-1H-pyrazol-4-yl)-4,5-dihydro-1H-[1,4]diazepino[1,2-a]indol-2(3H)-yl)-1-methyl-1H-indole-4-carboxylic acid] | 5700 nM
2 | Cc1cc(OCCCc2c3n(c4c(-c5c(C)nn(C)c5C)c(Cl)ccc24)[C@H](C)CN(c2cc(N(C)C(=O)CN4CCCCC4)cc4c(C(=O)O)cn(C)c24)C3=O)cc(C)c1Cl [Example 612, (R)-7-(7-chloro-10-(3-(4-chloro-3,5-dimethylphenoxy)propyl)-4-methyl-1-oxo-6-(1,3,5-trimethyl-1H-pyrazol-4-yl)-3,4-dihydropyrazino[1,2-a]indol-2(1H)-yl)-1-methyl-5-(N-methyl-2-(piperidin-1-yl)acetamido)-1H-indole-3-carboxylic acid] | 7600 nM
3 | Cc1cc(OCCCc2c3n(c4c(-c5c(C)n[nH]c5C)c(Cl)ccc24)[C@H](C)CN(c2cccc4c(C(=O)O)cn(C)c24)C3=O)cc(C)c1Cl [Example 108, (R)-7-(7-chloro-10-(3-(4-chloro-3,5-dimethylphenoxy)propyl)-6-(3,5-dimethyl-1H-pyrazol-4-yl)-4-methyl-1-oxo-3,4-dihydropyrazino[1,2-a]indol-2(1H)-yl)-1-methyl-1H-indole-3-carboxylic acid] | 880 nM
4 | Cc1cc(OCCCc2c3n(c4c(-c5c(C)nn(C)c5C)c(Cl)ccc24)[C@H](C)CN(c2cccc4c(C(N)=O)cn(C)c24)C3=O)cc(C)c1Cl [Example 357, (R)-7-(7-Chloro-10-(3-(4-chloro-3,5-dimethylphenoxy)propyl)-4-methyl-1-oxo-6-(1,3,5-trimethyl-1H-pyrazol-4-yl)-3,4-dihydropyrazino[1,2-a]indol-2(1H)-yl)-1-methyl-1H-indole-3-carboxamide] | 2000 nM
5 | COCCn1c(C(=O)O)cc2cc(C)cc(N3C[C@@H](C)n4c(c(CCCOc5cc(C)c(Cl)c(C)c5)c5ccc(Cl)c(-c6c(C)nc(CN7CCN(C)C(=O)C7)nc6C)c54)C3=O)c21 [Example 729, (R)-7-(7-chloro-10-(3-(4-chloro-3,5-dimethylphenoxy)propyl)-6-(4,6-dimethyl-2-((4-methyl-3-oxopiperazin-1-yl)methyl)pyrimidin-5-yl)-4-methyl-1-oxo-3,4-dihydropyrazino[1,2-a]indol-2(1H)-yl)-1-(2-methoxyethyl)-5-methyl-1H-indole-2-carboxylic acid] | 260 nM
6 | Cc1cc(OCCCc2c3n(c4c(-c5c(C)nn(C)c5C)c(Cl)ccc24)CCCN(Cc2cc(C(=O)O)ccn2)C3=O)cc(C)c1Cl [Example 43, 2-((8-Chloro-11-(3-(4-chloro-3,5-dimethylphenoxy)propyl)-1-oxo-7-(1,3,5-trimethyl-1H-pyrazol-4-yl)-4,5-dihydro-1H-[1,4]diazepino[1,2-a]indol-2(3H)-yl)methyl)isonicotinic acid] | 9400 nM
7 | COc1ccc(N2C[C@@H](C)n3c(c(CCCOc4cc(C)c(Cl)c(C)c4)c4ccc(Cl)c(-c5c(C)nc(CN6CCN(C)CC6)nc5C)c43)C2=O)c2c1cc(C(=O)O)n2Cc1ccccn1 [Example 492, (R)-7-(7-Chloro-10-(3-(4-chloro-3,5-dimethylphenoxy)propyl)-6-(4,6-dimethyl-2-((4-methylpiperazin-1-yl)methyl)pyrimidin-5-yl)-4-methyl-1-oxo-3,4-dihydropyrazino[1,2-a]indol-2(1H)-yl)-4-methoxy-1-(pyridin-2-ylmethyl)-1H-indole-2-carboxylic acid] | 360 nM
8 | Cc1cc(OCCCc2c3n(c4c(-c5c(C)nn(C)c5C)c(Cl)ccc24)CCCN(c2cn(C)c4cc(C(=O)O)ccc24)C3=O)cc(C)c1Cl [Example 68, 3-(8-Chloro-11-(3-(4-chloro-3,5-dimethylphenoxy)propyl)-1-oxo-7-(1,3,5-trimethyl-1H-pyrazol-4-yl)-4,5-dihydro-1H-[1,4]diazepino[1,2-a]indol-2(3H)-yl)-1-methyl-1H-indole-6-carboxylic acid] | 350 nM
9 | Cc1cc(OCCCc2c3n(c4c(-c5c(C)nn(C)c5C)c(Cl)ccc24)CCCN(c2cc(C(=O)O)c4ccn(C)c4c2)C3=O)cc(C)c1Cl (single isomer, unassigned) [Example 431, 6-(8-Chloro-11-(3-(4-chloro-3,5-dimethylphenoxy)propyl)-1-oxo-7-(1,3,5-trimethyl-1H-pyrazol-4-yl)-4,5-dihydro-1H-[1,4]diazepino[1,2-a]indol-2(3H)-yl)-1-methyl-1H-indole-4-carboxylic acid] | 2900 nM
10 | Cc1cccc(Cn2c(C(=O)O)cc3cc(OCCN(C)C)cc(N4C[C@@H](C)n5c(c(CCCOc6cc(C)c(Cl)c(C)c6)c6ccc(Cl)c(-c7c(C)nn(C)c7C)c65)C4=O)c32)n1 [Example 592, (R)-7-(7-chloro-10-(3-(4-chloro-3,5-dimethylphenoxy)propyl)-4-methyl-1-oxo-6-(1,3,5-trimethyl-1H-pyrazol-4-yl)-3,4-dihydropyrazino[1,2-a]indol-2(1H)-yl)-5-(2-(dimethylamino)ethoxy)-1-((6-methylpyridin-2-yl)methyl)-1H-indole-2-carboxylic acid] | 880 nM
11 | Cc1cc(OCCCc2c3n(c4c(-c5c(C)nn(C)c5C)c(Cl)ccc24)[C@@H](C)CN(c2cn(C)c4ccc(C(=O)O)cc24)C3=O)cc(C)c1Cl [Example 212, (S)-3-(7-chloro-10-(3-(4-chloro-3,5-dimethylphenoxy)propyl)-4-methyl-1-oxo-6-(1,3,5-trimethyl-1H-pyrazol-4-yl)-3,4-dihydropyrazino[1,2-a]indol-2(1H)-yl)-1-methyl-1H-indole-5-carboxylic acid] | 3400 nM
12 | Cc1cc(OCCCc2c3n(c4c(-c5c(C)nn(C)c5C)c(Cl)ccc24)CCCN(c2cn(C)c4ccc(C(=O)O)cc24)C3=O)cc(C)c1Cl [Example 80, 3-(8-Chloro-11-(3-(4-chloro-3,5-dimethylphenoxy)propyl)-1-oxo-7-(1,3,5-trimethyl-1H-pyrazol-4-yl)-4,5-dihydro-1H-[1,4]diazepino[1,2-a]indol-2(3H)-yl)-1-methyl-1H-indole-5-carboxylic acid] | 250 nM
13 | Cc1cc(OCCCc2c3n(c4c(-c5c(C)nn(C)c5C)c(Cl)ccc24)[C@H](C)CN(c2cn(C)c4ccc(C(=O)O)cc24)C3=O)cc(C)c1Cl [Example 76, (R)-3-(7-Chloro-10-(3-(4-chloro-3,5-dimethylphenoxy)propyl)-4-methyl-1-oxo-6-(1,3,5-trimethyl-1H-pyrazol-4-yl)-3,4-dihydropyrazino[1,2-a]indol-2(1H)-yl)-1-methyl-1H-indole-5-carboxylic acid] | < 200 nM
14 | Cc1cc(N2C[C@@H](C)n3c(c(CCCOc4cc(C)c(Cl)c(C)c4)c4ccc(Cl)c(-c5c(C)nn(C)c5C)c43)C2=O)c2c(c1)cc(C(=O)O)n2CCN1CCOCC1 [Example 597, (R)-7-(7-chloro-10-(3-(4-chloro-3,5-dimethylphenoxy)propyl)-4-methyl-1-oxo-6-(1,3,5-trimethyl-1H-pyrazol-4-yl)-3,4-dihydropyrazino[1,2-a]indol-2(1H)-yl)-5-methyl-1-(2-morpholinoethyl)-1H-indole-2-carboxylic acid] | 690 nM
15 | COc1ccc(N2C[C@@H](C)n3c(c(CCCOc4cc(C)c(Cl)c(C)c4)c4ccc(Cl)c(-c5c(C)nn(C)c5C)c43)C2=O)c2c1c(C(=O)O)cn2Cc1cccc(C)n1 [Example 622, (R)-7-(7-chloro-10-(3-(4-chloro-3,5-dimethylphenoxy)propyl)-4-methyl-1-oxo-6-(1,3,5-trimethyl-1H-pyrazol-4-yl)-3,4-dihydropyrazino[1,2-a]indol-2(1H)-yl)-4-methoxy-1-((6-methylpyridin-2-yl)methyl)-1H-indole-3-carboxylic acid] | 920 nM

Same assay, conditions: read-out: GI50 on cellular proliferation of H929 human cancer cell lines; H929 cells, 72 h, Cell TiterGlo, 10% FBS

Row | Structure (SMILES) | GI50
16 | Cc1cc(OCCCc2c3n(c4c(-c5c(C)nn(C)c5C)c(Cl)ccc24)[C@H](C)CN(c2cccc4cc(C(=O)O)ccc24)C3=O)cc(C)c1Cl [Example 187, (R)-5-(7-Chloro-10-(3-(4-chloro-3,5-dimethylphenoxy)propyl)-4-methyl-1-oxo-6-(1,3,5-trimethyl-1H-pyrazol-4-yl)-3,4-dihydropyrazino[1,2-a]indol-2(1H)-yl)-2-naphthoic acid] | < 200 nM
17 | Cc1cc(OCCCc2c3n(c4c(-c5c(C)ncnc5C)c(C)ccc24)[C@H](C)CN(c2cccc4cc(C(=O)O)n(Cc5ccccn5)c24)C3=O)cc(C)c1Cl (atropisomer, axis not shown) [Example 276, (R)-7-(10-(3-(4-chloro-3,5-dimethylphenoxy)propyl)-6-(4,6-dimethylpyrimidin-5-yl)-4,7-dimethyl-1-oxo-3,4-dihydropyrazino[1,2-a]indol-2(1H)-yl)-1-(pyridin-2-ylmethyl)-1H-indole-2-carboxylic acid] | 290 nM
18 | Cc1cc(OCCCc2c3n(c4c(-c5c(C)nn(C)c5C)c(Cl)ccc24)CCCN(c2cc(C(=O)O)c4ccn(C)c4c2)C3=O)cc(C)c1Cl (single isomer, unassigned) [Example 440, 6-(8-chloro-11-(3-(4-chloro-3,5-dimethylphenoxy)propyl)-1-oxo-7-(1,3,5-trimethyl-1H-pyrazol-4-yl)-4,5-dihydro-1H-[1,4]diazepino[1,2-a]indol-2(3H)-yl)-1-methyl-1H-indole-4-carboxylic acid] | 4500 nM
